The source of these data is patent publication US12338203B2 (TAISHO PHARMACEUTICAL CO., LTD., priority 2019, dated 2025).

For this assay, the target named is T1, human LPAR1 (Homo sapiens, UniProt Q92633).
T1 construct: expressed in transfected cells
T1 sequence (Q92633 whole entry): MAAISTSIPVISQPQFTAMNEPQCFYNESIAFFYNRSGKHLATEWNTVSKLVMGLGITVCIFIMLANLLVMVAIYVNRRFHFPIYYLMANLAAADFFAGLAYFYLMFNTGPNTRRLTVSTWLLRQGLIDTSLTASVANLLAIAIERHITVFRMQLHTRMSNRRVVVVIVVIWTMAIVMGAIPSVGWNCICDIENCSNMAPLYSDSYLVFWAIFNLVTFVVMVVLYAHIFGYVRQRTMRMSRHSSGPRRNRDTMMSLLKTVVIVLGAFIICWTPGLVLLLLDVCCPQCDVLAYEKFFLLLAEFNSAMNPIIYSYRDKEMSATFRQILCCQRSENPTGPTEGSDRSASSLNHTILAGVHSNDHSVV
Briefly: Test Example 1: antagonism against response of LPA-induced increase in intracellular Ca2+ concentration in RH7777 cells stably expressing human LPAR1. In kind it is cell-based. To be noted: RH7777 cells stably expressing human LPAR1; Fluo-4 fluorescence, FDSS6000; read-out: IC50 value (concentration producing 50% antagonism against response of LPA-induced increase in intracellular Ca2+ concentration) (converted). The method, boiled down:
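RH7777 cells stably transfected with human LPAR1 were preincubated with test compound 30 min at 37 °C in HBSS/20 mM HEPES/probenecid/0.05% BSA buffer, pH 7.4, then LPA-stimulated.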
Turning to `CCOc1cc(C(C)N(CCCCc2ccccc2)C(=O)NC2(C(=O)NS(C)(=O)=O)CC(F)(F)C2)cc(OCC)c1C(C)O` (centres unmarked) [Example 7-2], the IC50 is 9.55 nM. Regarding `CCOc1cc(C(C)N(CCCCc2ccccc2)C(=O)NC2(C(=O)NS(C)(=O)=O)CCCC2)cc(OCC)c1C` (centres unmarked) [Example 7-3], the IC50 is 88.3 nM. Turning to `CCOc1cc([C@@H](C)N(CCCCc2ccccc2)C(=O)NC2(C(=O)NS(N)(=O)=O)CC(F)(F)C2)cc(OCC)c1C(C)=O` [Example 7-4, 1-({[(1R)-1-(4-Acetyl-3,5-Diethoxyphenyl)Ethyl](4-Phenylbutyl) Carbamoyl}Amino)-3,3-Difluoro-N-Sulfamoylcyclobutane-1-Carboxamide], the IC50 is 3.42 nM.

Regarding `CCOc1cc(C(C)N(CCCCc2ccccc2)C(=O)NC2(C(=O)NS(=O)(=O)N(C)C)CCCC2)cc(OCC)c1C` (centres unmarked) [Example 7-5, 1-({[1-(3,5-Diethoxy-4-Methylphenyl)Ethyl](4-Phenylbutyl) Carbamoyl}Amino)-N-(Dimethylsulfamoyl)Cyclopentane-1-Carboxamide], the IC50 is 272 nM. For `CCOc1cc(C(C)N(CCCCc2ccccc2)C(=O)NC2(c3nc(=O)o[nH]3)CCCC2)cc(OCC)c1C` (centres unmarked) [Example 9-1, N-[1-(3,5-Diethoxy-4-Methylphenyl)Ethyl]-N′-[1-(5-Oxo-2,5-Dihydro-1,2,4-Oxadiazol-3-Yl)Cyclopentyl]-N-(4-Phenylbutyl) Urea], the IC50 is 506 nM. For `CCOc1cc([C@@H](C)N(CCO[C@@H](C)c2ccccc2)C(=O)NC2(c3nn[nH]n3)CC2)cc(OCC)c1C(C)=O` [Example 10-1, N-[(1R)-1-(4-Acetyl-3,5-Diethoxyphenyl)Ethyl]-N-{2-[(1S)-1-Phenylethoxy]Ethyl}-N′-[1-(2H-Tetrazol-5-Yl)Cyclopropyl]Urea], the IC50 was 3.22 nM. For the molecule `CCOc1cc(C(C)N(CCCCc2ccccc2)C(=O)NC(C)(C)c2nn[nH]n2)cc(OCC)c1C(C)=O` (centres unmarked) [Example 10-2], the IC50 was 2.48 nM. `CCOc1cc(C(C)N(CCCCc2ccccc2)C(=O)NC2(c3nn[nH]n3)CC2)cc(OCC)c1C(C)=O` (centres unmarked) [Example 10-3]: the IC50 is 1.9 nM.

Turning to `CCOc1cc(C(C)N(CCCC(F)(F)c2ccccc2)C(=O)NC2(c3nn[nH]n3)CC2)cc(OCC)c1C(C)=O` (centres unmarked) [Example 10-4], the IC50 is 2.63 nM. With `CCOc1cc(C(C)N(CCOCc2ccccc2)C(=O)NC2(c3nn[nH]n3)CC2)cc(OCC)c1C(C)=O` (centres unmarked) [Example 10-5] the figure was 2.85 nM; with `CCOc1cc(C(C)N(CCCCc2ccccc2)C(=O)NC2(c3nn[nH]n3)CCC2)cc(OCC)c1C(C)=O` (centres unmarked) [Example 10-6], 1.88 nM; with `CCOc1cc([C@@H](C)N(CCCCc2ccccc2)C(=O)NC2(c3nnn[nH]3)CC(F)(F)C2)cc(OCC)c1C(C)=O` [Example 10-7, N-[(1R)-1-(4-Acetyl-3,5-Diethoxyphenyl)Ethyl]-N′-[3,3-Difluoro-1-(1H-Tetrazol-5-Yl)Cyclobutyl]-N-(4-Phenylbutyl) Urea], 2.97 nM.

Regarding `CCOc1cc([C@@H](C)N(CCCCc2ccccc2)C(=O)NC2(c3nnn[nH]3)CC(F)(F)C2)cc(OCC)c1C(C)O` (stereo partly drawn) [Example 10-9, N-{(1R)-1-[3,5-Diethoxy-4-(1-Hydroxyethyl)Phenyl]Ethyl}-N′-[3,3-Difluoro-1-(1H-Tetrazol-5-Yl)Cyclobutyl]-N-(4-Phenylbutyl) Urea], the IC50 was 4.69 nM. As for `CCOc1cc([C@@H](C)N(CCCCc2ccccc2)C(=O)NC2(c3nn[nH]n3)CC(F)(F)C2)c(Cl)c(OCC)c1C(C)O` (some centres unmarked) [Example 10-10], the IC50 is 7.08 nM. For the molecule `CCOc1cc([C@@H](C)N(CCCCc2ccccc2)C(=O)NC2(c3nn[nH]n3)CC(F)(F)C2)c(Cl)c(OCC)c1C(C)O` (some centres unmarked) [Example 10-11], the IC50 was 8.1 nM. With `CCOc1cc(C(C)N(CCC(F)(F)Cc2ccccc2)C(=O)NC2(c3nn[nH]n3)CC(F)(F)C2)c(Cl)c(OCC)c1C(C)=O` (centres unmarked) [Example 10-12] the figure was 21.5 nM; with `CCOc1cc(C(C)N(CCOCc2ccccc2)C(=O)NC2(c3nn[nH]n3)CC(F)(F)C2)cc(OCC)c1C1CC1` (centres unmarked) [Example 10-13], 3.17 nM; with `CCOc1cc(C(C)N(CCCCc2ccccc2)C(=O)NC2(c3nn[nH]n3)CC(OC)C2)cc(OCC)c1C(C)=O` (centres unmarked) [Example 10-14], 5.08 nM. In the case of `CCOc1cc(C(C)N(CCOC(C)c2ccccc2)C(=O)NC2(c3nn[nH]n3)CC(OC)C2)cc(OCC)c1C1CC1` (centres unmarked) [Example 10-15], the IC50 was 2.38 nM. As to `CCOc1cc(C(C)N(CCOC(C)c2ccccc2)C(=O)NC2(c3nn[nH]n3)CC(OC)C2)cc(OCC)c1C(C)=O` (centres unmarked) [Example 10-16], the IC50 is 4.86 nM.

Take `CCOc1cc(C(C)N(CCOC(C)c2ccccc2)C(=O)N[C@]2(c3nn[nH]n3)C[C@@H](OC)C2)cc(OCC)c1C(C)O` (some centres unmarked) [Example 10-17]: the IC50 is 16.7 nM. With `CCOc1cc(C(C)N(CCCCc2ccccc2)C(=O)NC2(c3nn[nH]n3)CCCC2)cc(OCC)c1C` (centres unmarked) [Example 10-18], the IC50 is 38.4 nM. Take “Trans-1-[([(1R)-1-(4-Acetyl-2,6-Dichloro-3,5-Diethoxyphenyl)Ethyl]{2-[(1S)-1-Phenylethoxy]Ethyl}Carbamoyl)Amino]-3-Ethoxycyclobutane-1-Carboxylic Acid [Example 5-120]”: the IC50 was 11.1 nM.
